Columns and labels:
[1] = tested on: Normal human neonatal dermal fibroblasts; test: Expression of primary cilia in skin cells (immunofluorescence staining with ARL13B and acetylated tubulin antibodies, confocal microscope); format: cell-based; conditions: 48 hours, vs control group (FIG. 1)
Experimental: Normal human neonatal dermal fibroblasts were plated in a Lab-Tex™ 2-well glass chamber slide (Thermo Scientific, Waltham, Mass., USA) with 0.5×10^5 cells per well. 24 hours later, the cells were treated with a test substance (1.5 mL of 0.2 μM cytochalasin D, or 1.5 mL of 2 μM SAG). 48 hours, the cells were immobilized and primary cilia were stained.
The primary cilia were stained with ARL13B (Proteintech) and a-acetylated tubulin (Sigma-Aldrich) antibodies. The cells were incubated overnight at 4° C. with ARL13B antibody diluted to 1/500 based on weight and a-acetylated tubulin antibody diluted to 1/1000 based on weight in a PBS buffer supplemented with 0.1% Triton™ X-100 and 5% normal goat serum. Then, the cells were treated at room temperature for 2 hours with Alexa Fluor 594 goat anti-mouse IgG and 488 goat anti-rabbit IgG (Invitrogen) as secondary antibodies. The nuclei were stained with DAPI and observed under a confocal microscope. The experiment was repeated at least twice for independent test groups.

[2] = tested on: normal human dermal fibroblasts; test: Procollagen I secreted to the medium of fibroblasts, measured by western blotting; format: cell-based; conditions: 48 hours, vs control group (FIG. 2)
Experimental: It was investigated whether the increase in primary cilia leads to increased secretion of procollagen to the medium.
Specifically, normal human dermal fibroblasts were cultured in DMEM supplemented with 10% FBS (fetal bovine serum), 100 mg/L streptomycin and 100,000 U/L penicillin. The cultured fibroblasts seeded onto a 6-well plate with 1×10^5 cells per well and 1.5 mL of a medium containing 0.2 μM cytochalasin D or 2 pM SAG as a test substance was added 24 hours later. This leads to increased expression of primary cilia as in Test Example 1. 48 hours after the treatment with the test substance, the medium was collected and the amount of procollagen I in the medium was measured by western blotting. The procollagen I antibody was purchased from Developmental Studies Hybridoma Bank and diluted in a PBS buffer containing 0.1% Trito™ X-100 and 5% normal goat serum to 1/10000 based on weight. As a control group (loading control), electrophoresed polyacrylamide gel was stained with 0.05% Coomassie blue and then observed. The experiment was repeated at least twice for independent test groups.

With `C=C1C(O)[C@@H]2/C=C/C[C@H](C)C(=O)[C@](C)(O)/C=C/[C@H](OC(C)=O)[C@]23C(=O)N[C@@H](Cc2ccccc2)[C@@H]3[C@@H]1C` (stereo partly shown) [cytochalasin D] the “primary cilia of fibroblasts” value ([1]; 0.2 μM cytochalasin D) was “increased” and the “amount of procollagen in fibroblasts (procollagen I in the medium)” value ([2]; 0.2 μM cytochalasin D) was “increased”.
In the case of `CN[C@H]1CC[C@H](N(Cc2cccc(-c3ccncc3)c2)C(=O)c2sc3ccccc3c2Cl)CC1` [SAG, 3-chloro-N-[trans-4-(methylamino)cyclohexyl]-N-[[3-(4-pyridinyl)phenyl]methyl]benzo[b]thiophene-2-carboxamide], the “primary cilia of fibroblasts” value ([1]; 2 μM SAG) was “increased” and the “amount of procollagen in fibroblasts (procollagen I in the medium)” value ([2]; 2 pM SAG (so in the source)) was “increased”.
